Source: US10675293B2, “Nucleoside agents for the reduction of the deleterious activity of extended nucleotide repeat containing genes” (The Board of Trustees of the Leland Stanford Junior …, priority 2015, dated 2020)
Entries after “also recorded” stand apart in the source; their conditions may differ.

Tests used:
[1] = system: mutant Huntingtin protein; assay: Western blot of mutant HTT in Huntington's disease patient iPSC ND36999; assay type: cell-based, human; conditions: iPSC with 180 CAG repeats, 24 hr
Procedure: (§1) Cell samples were lysed in 30 mM Tris-HCl, pH 8.0, 5 mM NaCl, 0.1% Triton X-100 for 10 min on ice. The supernatants from spinning (14 k rpm for 10 min) were collected. The protein concentrations were determined by BCA assay (Pierce, ThermoFisher). Equal amounts of protein were loaded onto 4-12% gel. After electrophoresis, the gels were transferred to nitrocellulose membranes by wet transfer at 35V for 16 hr. The protein level of mutant HTT, total HTT and tubulin were determined by immunoblotting with anti-poly Glutamine (MAB1574 from Millipore), anti-Huntingtin protein (MAB2166 from Millipore) and anti-alpha tubulin (AJ1034a from ABGENT). Blots were imaged on a Li-Cor Odyssey infrared imager. The bands intensities were determined by Li-Cor Odyssey software.
(§2) To test whether the nucleoside 6-Azauridine (HD101) and (−)-6-Azauridine 2′,3′,5′-triacetate (HD106) can affect the expression of proteins with long polyQ domains, one iPSC (induced pluripotent stem cell) line ND36999, which was derived from a Huntington's disease patient who carries one allele of mutant htt gene with 180 CAG repeats, was purchased from the Coriell Institute. The iPSCs were plated into a 24-well plate coated with Matrigel. […] Cells were lysed and the protein concentrations were determined by BCA assay. […] The image (FIG. 10) was taken and the quantification was made by Li-Cor Odyssey imaging system.

[2] = system: Supt4h-YC and NGN-YN protein expression; assay: Western blot of Supt4h-YC and NGN-YN protein levels in 2-PN4 cells; assay type: cell-based, human
Procedure: As described (Liu et al., “Spt4 is selectively required for transcription of extended trinucleotide repeats,” Cell (2012) 148:690-701), equal amounts of protein were resolved by electrophoresis on 12% sodium dodecyl sulfate (SDS)-polyacrylamide gels, and transferred onto nitrocellulose membranes (nitrocellulose, Waterman 0.45 μM, NBA085C). After blocking with 5% low-fat milk in Tris-buffer saline containing 0.1% Tween-20, membranes were probed with primary antibodies, incubated with a horseradish peroxidase (HRP)-conjugated secondary antibody, and detected by ECL reagent (enhanced chemiluminescence, PerkinElmer).

total Huntingtin protein = assay: Western blot of total HTT in Huntington's disease patient iPSC ND36999; assay type: cell-based, human; conditions: iPSC with 180 CAG repeats, 24 hr
Procedure: as §1, §2

[3] = target: T1, Supt4h-YC / Supt5h NGN-YN interaction (Homo sapiens, UniProt O00267+P63272); assay: Bimolecular fluorescence complementation (BiFC) assay in 2-PN4 stable cells; assay type: cell-based
T1 construct: NGN-YN is a genetic engineered protein in which Supt5h NGN domain is fused to YFP YN; expressed in transfected cells
Procedure: Human Supt4h and Supt5hNGN were fused in-frame with the YC and YN respectively. The YN and YC represent the N- and C-terminal domain of yellow fluorescent protein Venus. To prevent a change in protein folding caused by the conjugation of two polypeptides (Kerppola, “Design and implementation of bimolecular fluorescence complementation (BiFC) assays for the visualization of protein interactions in living cells,” Nature protocols (2006) 1:1278-1286), a protein linker containing additional 10 amino acid residues was included in the fusion protein. Also, extra amino acids GSHM were incorporated into the Supt5hNGN to increase its protein stability (Wenzel et al., “Crystal structure of the human transcription elongation factor DSIF hSpt4 subunit in complex with the hSpt5 dimerization interface,” The Biochemical journal (2010) 425:373-380). Supt4h, NGN, YC, and YN were amplified by PCR to generate DNA fragments containing the nucleotide sequence of protein linker. Supt4h and NGN PCR products then were mixed with the PCR product of YN or YC for secondary overlapping PCR. Finally, the resulting Supt4h-YC and NGN-YN DNA fragment was cloned into plasmid vector pcDNA3-HA and pFLAG-CMV-2 respectively.
Tet-on HeLa cells were transfected with linearized pTRE-HA-Supt4h-VC-Flag-NGN-VN plasmid construct using LipofectAMINE 2000 (Invitrogen). After transfection, cells were cultured initially in growth medium containing puromycin (1 μg/ml) and then selected for clones that show YFP fluorescence in the presence of tetracycline (4 μg/ml). The stable line having the strongest fluorescence signal was isolated and designated as 2-PN4. Likewise, 21-VS stable line was created using pTRE-HA-Venus.
Stable lines 2-PN4 and 21-VS were pre-cultured in 6-well plates, followed by an incubation of Doxycycline (4 μg/ml) together with various concentrations of chemical compounds for 24 hr. Cells were washed with PBS (Sigma) and monitored by microscope (20× magnification). Photos were taken using Nikon D500 camera with a setting of ISO 1600, shutter 1/200 for the light images, and shutter ½ for the fluorescence images. For quantification of fluorescence intensity, 5 photos with similar cell number were taken and the fluorescence signal was measured by Metamorph software individually. The average of overall fluorescence signal was determined and compared to the one observed in DMSO-treated control sample.
For the purpose of high-throughput drug screening, based on the BiFC method as mentioned above, we have created a stable cell line that co-expresses NGN-YN and Supt4h-YC under the control of a tet-on inducible promoter. […] If the complementation that is driven by NGN and Supt4h interaction is inhibited by a given test compound, the de novo YFP fluorescence signal is affected. […]

SMILES: O=c1cnn([C@@H]2O[C@H](CO)[C@@H](O)[C@H]2O)c(=O)[nH]1 [HD101, 6-Azauridine]
- mutant Huntingtin protein level [1]: preferentially decrease mutant Huntingtin protein in a dose dependent manner; also recorded: reduced mutant huntingtin expression in a dose dependent manner
- protein expression of Supt4h-YC and NGN-YN [2]: does not decrease the BiFC signal via a change in the protein level
- total Huntingtin protein expression level (total Huntingtin protein): little effect
- reduction of BiFC signal compared to mock controls ([3]; 0.02 μM, 24 hr): approximately 70%
- BiFC fluorescence signal of 2-PN4 cells ([3]; various concentrations, 24 hr with Doxycycline 4 μg/ml): inhibits the fluorescence signal of BiFC
